Counter-ions that a name gives are not always drawn. Like-named read-outs stand apart in the source and are kept apart here.
How the values were obtained:
PDGFRβ [1] = biological target: T1, PDGFRβ (Homo sapiens (Human), UniProt P09619); assay: PDGFRβ enzyme inhibition (ADP-Glo assay); type: biochemical
PDGFRβ [2] = biological target: T1, PDGFRβ; assay: PDGF-BB induced phosphorylation of PDGFRβ in fibroblasts (MRC5, HTRF); type: cell-based; conditions: MRC5 cells, PDGFBB stimulation; read-out: PDGFBB-induced PDGFRβ phosphorylation in MRC5 cells (IC50)
MRC5 cells = assay: Cell viability assay in MRC5 cells (MTT)
[3] = mean, n = 2 (nintedanib n = 34)

T1 sequence (P09619 33-1106): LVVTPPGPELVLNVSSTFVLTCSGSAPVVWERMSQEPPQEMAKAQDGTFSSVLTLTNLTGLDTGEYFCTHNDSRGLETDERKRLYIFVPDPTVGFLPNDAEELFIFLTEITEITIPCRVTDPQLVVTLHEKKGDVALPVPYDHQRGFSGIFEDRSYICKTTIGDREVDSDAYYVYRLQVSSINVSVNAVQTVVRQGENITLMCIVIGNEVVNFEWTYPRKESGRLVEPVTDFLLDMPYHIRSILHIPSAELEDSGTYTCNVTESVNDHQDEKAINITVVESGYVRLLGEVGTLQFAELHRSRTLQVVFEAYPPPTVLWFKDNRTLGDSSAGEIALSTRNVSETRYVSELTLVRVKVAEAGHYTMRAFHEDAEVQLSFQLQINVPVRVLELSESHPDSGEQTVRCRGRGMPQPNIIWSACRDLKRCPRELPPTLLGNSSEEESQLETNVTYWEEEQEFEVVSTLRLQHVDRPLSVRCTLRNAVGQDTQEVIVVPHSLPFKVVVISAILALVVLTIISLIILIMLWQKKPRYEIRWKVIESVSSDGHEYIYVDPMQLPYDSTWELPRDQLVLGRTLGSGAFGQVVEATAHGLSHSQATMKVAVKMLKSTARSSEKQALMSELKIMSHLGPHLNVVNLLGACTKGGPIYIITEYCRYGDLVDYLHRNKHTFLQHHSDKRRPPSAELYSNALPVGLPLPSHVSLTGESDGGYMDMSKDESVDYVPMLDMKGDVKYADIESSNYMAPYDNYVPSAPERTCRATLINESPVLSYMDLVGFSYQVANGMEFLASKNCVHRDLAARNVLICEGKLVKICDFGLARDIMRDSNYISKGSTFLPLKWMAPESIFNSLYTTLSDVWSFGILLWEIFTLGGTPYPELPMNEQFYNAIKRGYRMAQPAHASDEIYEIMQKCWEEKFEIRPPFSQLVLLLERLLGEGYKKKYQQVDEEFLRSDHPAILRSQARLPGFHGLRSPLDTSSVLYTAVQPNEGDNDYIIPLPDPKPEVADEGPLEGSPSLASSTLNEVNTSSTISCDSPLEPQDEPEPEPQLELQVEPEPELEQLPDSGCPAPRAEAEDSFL

Compound	Ki (PDGFRβ [1]) [nM]	IC50 (PDGFRβ [2]) [nM]	Cell viability at 100 nM (%) (MRC5 cells)	Cell viability at 300 nM (%) (MRC5 cells)	Cell viability at 1000 nM (%) (MRC5 cells)	Ki (PDGFRβ [1]; [3]) [nM]
COC(=O)c1cc2c(cc1C)/C(=C(/Nc1ccc(C(=O)NCCN3CCC(F)CC3)cc1)c1ccccc1)C(=O)N2 [Example 28, (Z)-Methyl 3-(((4-((2-(4-fluoropiperidin-1-yl)ethyl)carbamoyl)phenyl)amino)(phenyl)methylene)-5-methyl-2-oxoindoline-6-carboxylate, formate]	20	51.3	149.4	97.6	83.6	
COC(=O)c1cc2c(cc1C)/C(=C(/Nc1ccc(C(=O)N(C)C3CCN(CCO)CC3)cc1)c1ccccc1)C(=O)N2 [Example 41, (Z)-Methyl 3-(((4-((1-(2-hydroxyethyl)piperidin-4-yl)(methyl)carbamoyl)phenyl)amino)(phenyl)methylene)-5-methyl-2-oxoindoline-6-carboxylate, 0.2 formate]		7.4	68.5	56.8	6.2	10.2
COC(=O)c1cc2c(cc1C)/C(=C(/Nc1ccc(C(=O)NCCN3CCC(CO)CC3)cc1)c1ccccc1)C(=O)N2 [Example 42, (Z)-Methyl 3-(((4-((2-(4-(hydroxymethyl)piperidin-1-yl)ethyl)carbamoyl)phenyl)amino)(phenyl)methylene)-5-methyl-2-oxoindoline-6-carboxylate, 0.2 formate]		14.9	82.5	83.4	60.7	14.4
COC(=O)c1cc2c(cc1C)/C(=C(/Nc1ccc(C(=O)N3CCCN(CCO)CC3)cc1)c1ccccc1)C(=O)N2 [Example 46, (Z)-Methyl-3-(((4-(4-(2-hydroxyethyl)-1,4-diazepane-1-carbonyl)phenyl)amino)(phenyl)methylene)-5-methyl-2-oxoindoline-6-carboxylate]		2.49	87	80.2	18.2	6.65
COC(=O)c1cc2c(cc1C)/C(=C(/Nc1ccc(C(=O)N3CCC(C(N)=O)(N4CCCCC4)CC3)cc1)c1ccccc1)C(=O)N2 [Example 47, (Z)-Methyl 3-(((4-(4′-carbamoyl-[1,4′-bipiperidine]-1′-carbonyl)phenyl)amino)(phenyl)methylene)-5-methyl-2-oxoindoline-6-carboxylate]		3.67	143.1	123	58.5	98.9
COC(=O)c1cc2c(cc1C)/C(=C(/Nc1ccc(C(=O)N(C)[C@H]3CN(C)C[C@@H]3O)cc1)c1ccccc1)C(=O)N2 [Example 48, (Z)-Methyl 3-(((4-(((3S,4S)-4-hydroxy-1-methylpyrrolidin-3-yl)(methyl)carbamoyl)phenyl)amino)(phenyl)methylene)-5-methyl-2-oxoindoline-6-carboxylate, 0.4 formate]		2.29	84.4	74.4	14.1	9.49
